In one experiment the target is T1, Human Calpain 9/NS1 (Homo sapiens, UniProt O14815).
T1 sequence (O14815 1-690): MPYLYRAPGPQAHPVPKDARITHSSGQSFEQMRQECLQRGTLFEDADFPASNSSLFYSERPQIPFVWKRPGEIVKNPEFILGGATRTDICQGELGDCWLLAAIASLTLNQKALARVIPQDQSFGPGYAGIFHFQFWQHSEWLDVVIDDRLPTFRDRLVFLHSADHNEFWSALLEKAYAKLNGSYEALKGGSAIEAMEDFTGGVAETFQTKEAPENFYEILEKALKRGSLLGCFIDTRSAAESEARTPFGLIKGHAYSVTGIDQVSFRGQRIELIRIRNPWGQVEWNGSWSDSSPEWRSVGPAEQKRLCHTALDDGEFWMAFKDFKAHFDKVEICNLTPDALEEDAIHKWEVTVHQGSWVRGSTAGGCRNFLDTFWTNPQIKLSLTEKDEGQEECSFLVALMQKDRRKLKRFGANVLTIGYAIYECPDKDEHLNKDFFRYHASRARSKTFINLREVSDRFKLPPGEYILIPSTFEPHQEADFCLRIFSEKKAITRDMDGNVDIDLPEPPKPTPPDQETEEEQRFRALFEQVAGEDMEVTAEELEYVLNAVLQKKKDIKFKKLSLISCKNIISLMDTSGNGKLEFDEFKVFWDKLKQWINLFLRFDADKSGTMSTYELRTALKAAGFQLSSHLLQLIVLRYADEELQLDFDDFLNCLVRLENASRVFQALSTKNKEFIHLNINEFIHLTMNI
T1 sequence (P04632 1-268 partner): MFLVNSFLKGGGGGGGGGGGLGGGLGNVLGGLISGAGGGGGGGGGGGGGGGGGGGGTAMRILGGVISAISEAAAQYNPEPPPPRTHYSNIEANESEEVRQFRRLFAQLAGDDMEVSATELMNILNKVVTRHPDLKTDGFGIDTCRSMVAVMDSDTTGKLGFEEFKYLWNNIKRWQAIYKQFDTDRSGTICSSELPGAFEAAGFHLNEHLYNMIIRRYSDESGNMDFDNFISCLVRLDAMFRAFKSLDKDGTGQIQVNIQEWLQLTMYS
The experiment is described as follows: Calpain inhibition continuous fluorescence (FRET) assay, Human Calpain 9/NS1. It counts as biochemical. The conditions noted are these: read-out: Human Calpain 9/NS1 IC50. In a few lines: (§1)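 Inhibitors were preincubated with calpain in 50 mM Tris pH 7.5, 100 mM NaCl, 1 mM DTT at 25C. Reactions were started with 5-FAM/QXL 520 FRET peptide substrate plus CaCl2 and read at 490/520 nm for 10 min. IC50s came from 4-parameter fits of slope rates (1-5 min).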

A further experiment has as its target T2, Human Calpain 1/NS1 (Homo sapiens, UniProt P07384).
T2 sequence (P07384 1-714): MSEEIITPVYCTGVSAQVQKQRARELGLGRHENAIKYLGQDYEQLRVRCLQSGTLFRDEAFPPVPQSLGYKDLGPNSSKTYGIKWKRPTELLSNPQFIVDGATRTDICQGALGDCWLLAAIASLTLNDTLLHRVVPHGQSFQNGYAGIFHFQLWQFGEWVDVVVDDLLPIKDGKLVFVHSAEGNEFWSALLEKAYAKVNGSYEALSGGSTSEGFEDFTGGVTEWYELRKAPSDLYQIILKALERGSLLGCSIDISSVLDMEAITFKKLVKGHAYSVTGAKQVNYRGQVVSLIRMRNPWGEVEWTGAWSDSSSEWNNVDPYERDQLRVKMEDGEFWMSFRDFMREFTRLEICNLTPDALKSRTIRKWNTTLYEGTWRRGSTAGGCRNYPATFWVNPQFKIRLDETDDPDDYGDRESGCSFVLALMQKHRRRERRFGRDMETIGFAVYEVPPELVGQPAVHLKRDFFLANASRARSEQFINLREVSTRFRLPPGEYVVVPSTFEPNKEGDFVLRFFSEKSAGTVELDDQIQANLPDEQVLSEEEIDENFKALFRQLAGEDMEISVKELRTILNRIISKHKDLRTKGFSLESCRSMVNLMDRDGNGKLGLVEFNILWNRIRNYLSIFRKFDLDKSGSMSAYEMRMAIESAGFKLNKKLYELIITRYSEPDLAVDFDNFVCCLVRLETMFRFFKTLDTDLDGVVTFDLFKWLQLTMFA
T2 sequence (P04632 1-268 partner): T1 sequence (P04632 1-268 partner)
As to the kind of experiment: Calpain inhibition continuous fluorescence (FRET) assay, Human Calpain 1/NS1. It counts as biochemical. To be noted: read-out: Human Calpain 1/NS1 IC50. Put shortly: as §1

Experiment [1] relates to Calpain activity in SH-SY5Y cells (SBDP-150). As to the kind of experiment: SH-SY5Y Spectrin western blot assay (SBDP-150 breakdown product, A23187-induced). The conditions noted are these: Homo sapiens, SH-SY5Y cells, read-out: SH-SY5Y Spectrin IC50. It counts as cell-based.
Where [2] appears, read: Column D, A23187-induced SBDP-150.
Where [3] appears, read: A23187-induced SBDP-150, western blot.

Here are results for 14 molecules from patent US11339130B1 (Blade Therapeutics, Inc., priority 2016, dated 2022).

Like-named read-outs stand apart in the source and are kept apart here.

As to `Cc1nc(-c2ccccc2F)c(C(=O)NC(Cc2ccccc2)C(=O)C(N)=O)o1` (centres unmarked) [Compound 405, N-(4-amino-3,4-dioxo-1-phenylbutan-2-yl)-4-(2-fluorophenyl)-2-methyloxazole-5-carboxamide], the IC50 on Human Calpain 9/NS1 and on Human Calpain 1/NS1 was < 3 µM each time.
On to `NC(=O)C(=O)[C@H](Cc1ccccc1)NC(=O)c1nsnc1-c1ccccc1` [Compound 72, (S)—N-(4-amino-3,4-dioxo-1-phenylbutan-2-yl)-4-phenyl-1,2,5-thiadiazole-3-carboxamide], for which the results for the IC50 (at Human Calpain 9/NS1 (Column C); in experiment [1] (setting [2]); on Human Calpain 1/NS1 (Column A)) were < 3 µM, < 10 µM and < 3 µM, respectively.
Turning to `Cc1nc(-c2cccc(F)c2)c(C(=O)NC(Cc2ccccc2)C(=O)C(N)=O)o1` (centres unmarked) [Compound 404, N-(4-amino-3,4-dioxo-1-phenylbutan-2-yl)-4-(3-fluorophenyl)-2-methyloxazole-5-carboxamide], the IC50 is < 3 µM on Human Calpain 9/NS1, < 10 µM in experiment [1] (setting [3]) and < 3 µM on Human Calpain 1/NS1.
On to `Cn1cc(C(=O)NC(Cc2ccccc2)C(=O)C(N)=O)c(-c2ccccc2F)n1` (centres unmarked) [Compound 484, N-(4-amino-3,4-dioxo-1-phenylbutan-2-yl)-3-(2-fluorophenyl)-1-methyl-1H-pyrazole-4-carboxamide], for which the values for the IC50 (at Human Calpain 9/NS1; in experiment [1] (setting [3]); on Human Calpain 1/NS1) were < 3 µM, 10 to 25 µM and < 3 µM, respectively.
On to `CCCC[C@H](NC(=O)c1oc(C)nc1-c1ccccc1)C(=O)C(N)=O` [Compound 265, (S)—N-(1-amino-1,2-dioxoheptan-3-yl)-2-methyl-4-phenyloxazole-5-carboxamide], for which the IC50 on Human Calpain 9/NS1 (Column C) was < 3 µM; in experiment [1] (setting [2]) it was < 10 µM; on Human Calpain 1/NS1 (Column A) it was < 3 µM.
Consider `NC(=O)C(=O)C(Cc1ccccc1)NC(=O)c1cn(C2CC2)nc1-c1ccccc1` (centres unmarked) [Compound 406, N-(4-amino-3,4-dioxo-1-phenylbutan-2-yl)-1-cyclopropyl-3-phenyl-1H-pyrazole-4-carboxamide], for which the IC50 on Human Calpain 9/NS1 was < 3 µM; in experiment [1] (setting [3]), 10 to 25 µM; at Human Calpain 1/NS1, < 3 µM.
On to `NC(=O)C(=O)[C@H](Cc1ccccc1)NC(=O)c1snnc1-c1ccccc1` [Compound 44, (S)—N-(4-amino-3,4-dioxo-1-phenylbutan-2-yl)-4-phenyl-1,2,3-thiadiazole-5-carboxamide], for which the IC50 on Human Calpain 9/NS1 (Column C) was < 3 µM; in experiment [1] (setting [2]) it was 10 to 25 µM; at Human Calpain 1/NS1 (Column A), < 3 µM.
`NC(=O)C(=O)C(Cc1ccccc1)NC(=O)c1cn(C(F)F)nc1-c1ccccc1` (centres unmarked) [Compound 403, N-(4-amino-3,4-dioxo-1-phenylbutan-2-yl)-1-(difluoromethyl)-3-phenyl-1H-pyrazole-4-carboxamide]: the IC50 is < 3 µM at Human Calpain 9/NS1, < 10 µM in experiment [1] (setting [3]) and < 3 µM on Human Calpain 1/NS1.
With `NC(=O)C(=O)[C@H](Cc1ccccc1)NC(=O)c1cn(C2CC2)nc1-c1ccccc1` [Compound 250, (S)—N-(4-amino-3,4-dioxo-1-phenylbutan-2-yl)-1-cyclopropyl-3-phenyl-1H-pyrazole-4-carboxamide], the IC50 was < 3 µM at Human Calpain 9/NS1 (Column C), 10 to 25 µM in experiment [1] (setting [2]) and < 3 µM at Human Calpain 1/NS1 (Column A).
For `Cc1nc(-c2ccccc2)c(C(=O)NC(Cc2ccccc2)C(=O)C(N)=O)o1` (centres unmarked) [Compound 357, N-(4-amino-3,4-dioxo-1-phenylbutan-2-yl)-2-methyl-4-phenyloxazole-5-carboxamide], the IC50 was < 3 µM at Human Calpain 9/NS1, < 10 µM in experiment [1] (setting [3]) and < 3 µM on Human Calpain 1/NS1.
Take `NC(=O)C(=O)[C@H](Cc1ccccc1)NC(=O)c1cnoc1-c1ccccc1` [Compound 60, (S)—N-(4-amino-3,4-dioxo-1-phenylbutan-2-yl)-5-phenylisoxazole-4-carboxamide]: the IC50 was < 3 µM at Human Calpain 9/NS1 (Column C), < 10 µM in experiment [1] (setting [2]) and < 3 µM at Human Calpain 1/NS1 (Column A).
Regarding `Cc1cc(C(=O)NC(Cc2ccccc2)C(=O)C(N)=O)n(-c2ccccn2)n1` (centres unmarked) [Compound 495, N-(4-amino-3,4-dioxo-1-phenylbutan-2-yl)-3-methyl-1-(pyridin-2-yl)-1H-pyrazole-5-carboxamide], the IC50 was < 3 µM on Human Calpain 9/NS1, 10 to 25 µM in experiment [1] (setting [3]) and < 3 µM at Human Calpain 1/NS1.
As to `Cn1cc(C(=O)N[C@@H](Cc2ccccc2)C(=O)C(N)=O)c(-c2ccccc2)n1` [Compound 32, (S)—N-(4-amino-3,4-dioxo-1-phenylbutan-2-yl)-1-methyl-3-phenyl-1H-pyrazole-4-carboxamide], the IC50 at Human Calpain 9/NS1 (Column C) is < 3 µM; in experiment [1] (setting [2]), < 10 µM; at Human Calpain 1/NS1 (Column A), < 3 µM.
For the molecule `Cl.Cn1cc(C(=O)NC(Cc2ccccc2)C(=O)C(N)=O)c(-c2cccc(F)c2)n1` (centres unmarked) [Compound 485, N-(4-amino-3,4-dioxo-1-phenylbutan-2-yl)-3-(3-fluorophenyl)-1-methyl-1H-pyrazole-4-carboxamide hydrochloride], the values for the IC50 (on Human Calpain 9/NS1; in experiment [1] (setting [3]); on Human Calpain 1/NS1) were < 3 µM, 10 to 25 µM and < 3 µM, respectively.
